This note sets out measurements from patent US9040714B2 (MannKind Corporation, priority 2010, dated 2015).

Each structure is given as a SMILES string. Where a name gives a salt, the structure may show the parent alone.

One assay has as its system IRE-1α-mediated XBP-1 splicing in human myeloma MM.1s cells. Briefly: Cellular EC50: endogenous XBP-1 splicing in myeloma cells by RT-PCR (DTT stress). The assay is classed as cell-based. Particulars: MM1.S, average cellular EC50, XBP-1 splicing in myeloma cells, read-out: EC50_av. How it is done:
Human myeloma MM.1s cells are incubated with a compound for 1.25 hours before stressing the cells with 2 mM dithiothreitol (DTT). After an additional 45 minutes (2 hours total) with compound and DTT, the cells are harvested with TRIZOL® (a mono-phasic solution of phenol and guanidine isothiocyanate), and total RNA is prepared as directed by the manufacturer (Invitrogen). Human XBP-1 is amplified by RT-PCR with the following primers, which flank the 26 base unconventional intron excised by IRE-1α:
RT-PCR of unstressed (U) cells then generates the upper band. When cells are stressed (S) with the endoplasmic reticulum (ER) stressing agent DTT, IRE-1α is activated due to accumulating unfolded protein and the resulting RT-PCR, product is 26 base pairs shorter.
Compounds which pass specificity assays are assayed for cellular EC50 using endogenous XBP-1 splicing in myeloma cells. XBP-1 is regulated through the excision of a 26 nucleotide intron from the XBP-1 mRNA by the highly specific endoribonuclease activity of IRE-1α. […] This splicing event is used to measure IRE-1α activity on XBP-1 mRNA in cells and tissues.
Briefly, compounds are incubated in the presence or absence of an ER stress agent (e.g., DTT), and the ratio of XBP-1u (unspliced) to XBP-1 s (spliced) is quantified by RT-PCR. The ED50 is determined as the 50% XBP-1s to total XPB-1 levels.
Regarding `Cc1c(C)c2cc(OCCN3CCOCC3)c(O)c(C=O)c2oc1=O` [Example 203], the EC50 was under 10 µM.

On to `CN1CCC(NC(=O)CCc2nc3c(C=O)c(O)ccc3[nH]2)CC1` [Example 233], for which the EC50 was under 10 µM.

With `O=Cc1c(O)ccc2[nH]c(C(=O)N3CCOCC3)cc12` [Example 274], the EC50 is over 10 µM.

With `CCN(CC)CCc1c(C)c2ccc(O)c(C=O)c2oc1=O` [Example 4], the EC50 is over 10 µM.

For `COCCNC(=O)Cc1c(C)oc2c(C=O)c(O)cc(OC)c2c1=O` [Example 226], the EC50 is under 10 µM.

Consider `Cc1c(-c2cccc(C(=O)N3CCOCC3)c2)c(=O)oc2c(C=O)c(O)ccc12` [Example 13], for which the EC50 is under 10 µM.

With `Cc1oc2c(C=O)c(O)ccc2c(=O)c1CC(=O)N1CCN(C)CC1` [Example 222], the EC50 was under 10 µM.

With `CCNC(=O)Cc1c(C)oc2c(C=O)c(O)cc(OC)c2c1=O` [Example 228], the EC50 was under 10 µM.

Regarding `COCCNC(=O)CCc1cc2c(C=O)c(O)ccc2s1` [Example 266], the EC50 is under 10 µM.

With `CCNC(=O)CCc1c(C)c2cc(OCCN3CCOCC3)c(O)c(C=O)c2oc1=O` [Example 204], the EC50 was over 10 µM.

On to `CN1CCN(C(=O)CCc2nc3ccc(O)c(C=O)c3n2C)CC1` [Example 239], for which the EC50 is over 10 µM.

For `COCCOCCc1c(C)c2c(OC)cc(O)c(C=O)c2oc1=O` [Example 145], the EC50 was under 10 µM.

For the molecule `COCCNC(=O)Cc1c(C)c2cc(OCCN3CCOCC3)c(O)c(C=O)c2oc1=O` [Example 205], the EC50 came out at 10 µM.

As to `CC1CCN(C(=O)c2ccc(-c3nc4ccc(O)c(C=O)c4s3)cc2)CC1` [Compound 57], the EC50 was over 10 µM.

`COCCNC(=O)c1cc2c(C=O)c(O)ccc2[nH]1` [Example 273]: the EC50 is over 10 µM.

Consider `CCOC(=O)CCc1cc2c(C=O)c(O)ccc2s1` [Example 267], for which the EC50 was over 10 µM.

Take `Cc1c(CCC(=O)N2CCOCC2)c(=O)oc2c(C=O)c(O)ccc12` [Example 69]: the EC50 was under 10 µM.

For the molecule `CCOC(=O)CCc1nc2c(C=O)c(O)ccc2n1C` [Example 245], the EC50 was under 10 µM.

Turning to `COCCOc1cc(O)c(C=O)c2oc(=O)c(CC(=O)NCCN3CCOCC3)c(C)c12` [Example 163], the EC50 is under 10 µM.

With `O=Cc1c(O)ccc2sc(C(=O)NCCN3CCOCC3)cc12` [Example 262], the EC50 is under 10 µM.

With `O=Cc1c(O)ccc2[nH]c(C(=O)NCCN3CCOCC3)cc12` [Example 277], the EC50 was over 10 µM.

As to `COCCc1c(C)c2c(OC)cc(O)c(C=O)c2oc1=O` [Example 124], the EC50 is under 10 µM.

With `Cn1c(CCC(=O)NCCN2CCOCC2)nc2ccc(O)c(C=O)c21` [Example 238], the EC50 is over 10 µM.

Regarding `O=Cc1c(O)ccc2nc(CCC(=O)NCCN3CCOCC3)[nH]c12` [Example 235], the EC50 was over 10 µM.

As to `COCCNC(=O)CCc1nc2c(C=O)c(O)ccc2o1` [Example 249], the EC50 was over 10 µM.

As to `O=Cc1c(O)ccc2nc(-c3cccc(C(=O)N4CCCC4)c3)ccc12`, the EC50 is over 10 µM.

For the molecule `O=Cc1c(O)ccc2oc(CCC(=O)N3CCOCC3)nc12` [Example 250], the EC50 is over 10 µM.

Consider `CCOC(=O)Cc1c(C)c2c(OCCOC)cc(O)c(C=O)c2oc1=O` [Example 158], for which the EC50 is under 10 µM.

As to `Cn1c(CCC(=O)NCCN2CCOCC2)nc2c(C=O)c(O)ccc21` [Example 243], the EC50 is over 10 µM.

Turning to `C=CCc1c(C)c2c(OC)cc(O)c(C=O)c2oc1=O` [Example 126], the EC50 is under 10 µM.

`Cc1oc2c(C=O)c(O)ccc2c(=O)c1CCC(=O)NCCN1CCOCC1` [Example 219]: the EC50 is over 10 µM.

Take `O=Cc1c(O)ccc2oc(CCC(=O)NCCN3CCOCC3)nc12` [Example 253]: the EC50 is under 10 µM.

As for `CCNC(=O)CCc1nc2c(C=O)c(O)ccc2[nH]1` [Example 234], the EC50 was over 10 µM.

Regarding `O=Cc1c(O)ccc2oc(CCC(=O)O)nc12` [Example 248], the EC50 is over 10 µM.

`CN1CCN(C(=O)c2cc3c(C=O)c(O)ccc3o2)CC1` [Example 284]: the EC50 is over 10 µM.

For the molecule `COCCNC(=O)Cc1c(C)oc2c(C=O)c(O)ccc2c1=O` [Example 220], the EC50 was under 10 µM.

`Cc1c(-c2ccc(C(=O)N3CCC(C)CC3)cc2)c(=O)oc2c(C=O)c(O)ccc12` [Example 19]: the EC50 was under 10 µM.

As to `COc1cc(O)c(C=O)c2oc(C)c(CC(=O)N3CCOCC3)c(=O)c12` [Example 227], the EC50 is under 10 µM.

On to `CN1CCN(C(=O)CCc2nc3c(C=O)c(O)ccc3n2C)CC1` [Example 244], for which the EC50 is over 10 µM.

Take `COCCOc1cc(O)c(C=O)c2oc(=O)c(C)c(C)c12` [Example 165]: the EC50 is under 10 µM.

As for `Cc1c(-c2ccc(C(=O)N3CCN(C)CC3)cc2)c(=O)oc2c(C=O)c(O)ccc12` [Example 2], the EC50 was under 10 µM.

On to `Cc1oc2c(C=O)c(O)ccc2c(=O)c1CC(=O)NCCN1CCOCC1` [Example 225], for which the EC50 is over 10 µM.

With `O=Cc1c(O)ccc2sc(CC(=O)O)cc12` [Example 265], the EC50 was over 10 µM.

Consider `CCNC(=O)Cc1c(C)oc2c(C=O)c(O)ccc2c1=O` [Example 223], for which the EC50 was under 10 µM.

With `Cn1c(CCC(=O)O)nc2c(C=O)c(O)ccc21` [Example 246], the EC50 is over 10 µM.

As for `Cc1c(Br)c(=O)oc2c(C=O)c(O)ccc12` [Example 1], the EC50 is under 10 µM.

For `CCOC(=O)CCc1nc2c(C=O)c(O)ccc2o1` [Example 247], the EC50 was over 10 µM.

In the case of `Cc1c(CC(=O)N2CCOCC2)c(=O)oc2c(C=O)c(O)c(OCCN3CCOCC3)cc12` [Example 206], the EC50 was 10 µM.

Consider `O=Cc1c(O)ccc2oc(C(=O)O)cc12` [Example 281], for which the EC50 was over 10 µM.

Turning to `COCCNC(=O)CCc1c(C)c2cc(OCCN3CCOCC3)c(O)c(C=O)c2oc1=O` [Example 202], the EC50 is over 10 µM.

Turning to `CCNC(=O)c1cc2c(C=O)c(O)ccc2[nH]1` [Example 276], the EC50 was over 10 µM.

`CCNC(=O)CCc1c(C)oc2c(C=O)c(O)ccc2c1=O` [Example 217]: the EC50 is under 10 µM.

As to `O=Cc1c(O)ccc2sc(CCC(=O)N3CCOCC3)cc12` [Example 268], the EC50 was over 10 µM.

As for `COCCNC(=O)CCc1c(C)oc2c(C=O)c(O)c(OC)cc2c1=O` [Example 212], the EC50 was over 10 µM.

With `COc1cc(O)c(C=O)c2oc(=O)c(C)c(CN3CCOCC3)c12` [Example 134], the EC50 is under 10 µM.

Consider `Cc1oc2c(C=O)c(O)ccc2c(=O)c1CCC(=O)N1CCN(C)CC1` [Example 88], for which the EC50 was over 10 µM.

As to `O=Cc1c(O)ccc2nc(-c3ccc(C(=O)NCCN4CCOCC4)cc3)[nH]c12` [Compound 60], the EC50 was over 10 µM.

As to `Cc1oc2c(C=O)c(O)ccc2c(=O)c1CCC(=O)N1CCOCC1` [Example 216], the EC50 was under 10 µM.

As for `O=Cc1c(O)ccc2nc(-c3ccc(C(=O)N4CCCC4)cc3)ccc12` [Compound 48], the EC50 was under 10 µM.

Regarding `COCCNC(=O)CCc1nc2ccc(O)c(C=O)c2n1C` [Example 237], the EC50 is over 10 µM.

Regarding `COc1cc(O)c(C=O)c2oc(=O)c(CC(=O)N3CCN(C)CC3)c(C)c12` [Example 178], the EC50 was under 10 µM.

As for `Cc1nc2ccc(O)c(C=O)c2o1` [Example 256], the EC50 is over 10 µM.

With `COc1cc2c(=O)c(CCC(=O)NCCN(C)C)c(C)oc2c(C=O)c1O` [Example 214], the EC50 is over 10 µM.

Consider `CCOC(=O)CCc1c(C)c2cc(N(C)C(C)=O)c(O)c(C=O)c2oc1=O` [Example 144], for which the EC50 is over 10 µM.

With `CCOC(=O)c1cc2c(C=O)c(O)ccc2o1` [Example 280], the EC50 was over 10 µM.

Regarding `COCc1cc(=O)oc2c(C=O)c(O)cc(OC)c12` [Example 122], the EC50 is under 10 µM.

As to `Cc1cc(=O)oc2c(C=O)c(O)c(F)cc12` [Example 23, hydrochloride], the EC50 was under 10 µM.

As for `COCCNC(=O)c1cc2c(C=O)c(O)ccc2s1` [Example 258], the EC50 was over 10 µM.

Take `COCCOc1cc(O)c(C=O)c2oc(=O)c(CC(=O)N3CCN(C)CC3)c(C)c12` [Example 161]: the EC50 is under 10 µM.

Take `COc1cc2c(=O)c(CCC(=O)NCCN3CCOCC3)c(C)oc2c(C=O)c1O` [Example 93]: the EC50 is over 10 µM.

On to `O=Cc1c(O)ccc2nc(-c3cccc(C(=O)N4CCOCC4)c3)ccc12` [Example 43], for which the EC50 is under 10 µM.

On to `CC(=O)NC1CCN(c2ccc3c(C=O)c(O)ccc3n2)C1` (stereo not drawn) [Compound 51], for which the EC50 is under 10 µM.

Take `O=Cc1c(O)ccc2sc(C(=O)N3CCOCC3)cc12` [Example 259]: the EC50 was over 10 µM.

Staying with this assay, now noted: MM1.S, read-out: EC50_av.
Turning to `Cc1c(Br)c(=O)oc2c(C=O)c(O)c(F)cc12` [Example 9], the EC50 is under 10 µM.

In the case of `Cc1c(-c2ccc(C(=O)N3CCCC3)cc2)c(=O)oc2c(C=O)c(O)ccc12` [Example 18], the EC50 is under 10 µM.

`Cc1c(-c2cccc(C(=O)N3CCCC3)c2)c(=O)oc2c(C=O)c(O)ccc12` [Example 21]: the EC50 is over 10 µM.

Consider `O=Cc1c(O)ccc2cc(-c3ccc(Br)cc3)c(=O)oc12` [Example 7], for which the EC50 was over 10 µM.

Regarding `COc1cc2c(C)c(Br)c(=O)oc2c(C=O)c1O` [Example 6], the EC50 is under 10 µM.
